The results in this text go back to ChEMBL document CHEMBL1909046, “DrugMatrix in vitro pharmacology data”.

*1 amine or outer side, *2 acyl side, *3 side chain or, on linkers, in order; H or OH if unused. Where a SMILES comes first, the peptide text is derived from it. Bridges are numbered along the chain shown (N, C = ends). Roman numbers before positions name the chains, in order. [ ]: non-standard residue; d: D form. Actinocin(1to9) = Cc1c2oc3c(C)ccc(C(=O)[*:2])c3nc-2c(C(=O)[*:1])c(N)c1=O; NMeV = CN[C@H](C(=O)O)C(C)C; Sar = CNCC(=O)O

What is called IC50 is the midpoint of a concentration-inhibition curve.

The target of series [1] is T1, Polyunsaturated fatty acid lipoxygenase ALOX15 (Oryctolagus cuniculus, UniProt P12530).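 Further: inhibition of 15-lipoxygenase enzyme activity measured with linoleic acid as the substrate; in other assays of this panel Not Active means under 50% inhibition at 10 µM.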
T1 sequence (P12530 whole entry): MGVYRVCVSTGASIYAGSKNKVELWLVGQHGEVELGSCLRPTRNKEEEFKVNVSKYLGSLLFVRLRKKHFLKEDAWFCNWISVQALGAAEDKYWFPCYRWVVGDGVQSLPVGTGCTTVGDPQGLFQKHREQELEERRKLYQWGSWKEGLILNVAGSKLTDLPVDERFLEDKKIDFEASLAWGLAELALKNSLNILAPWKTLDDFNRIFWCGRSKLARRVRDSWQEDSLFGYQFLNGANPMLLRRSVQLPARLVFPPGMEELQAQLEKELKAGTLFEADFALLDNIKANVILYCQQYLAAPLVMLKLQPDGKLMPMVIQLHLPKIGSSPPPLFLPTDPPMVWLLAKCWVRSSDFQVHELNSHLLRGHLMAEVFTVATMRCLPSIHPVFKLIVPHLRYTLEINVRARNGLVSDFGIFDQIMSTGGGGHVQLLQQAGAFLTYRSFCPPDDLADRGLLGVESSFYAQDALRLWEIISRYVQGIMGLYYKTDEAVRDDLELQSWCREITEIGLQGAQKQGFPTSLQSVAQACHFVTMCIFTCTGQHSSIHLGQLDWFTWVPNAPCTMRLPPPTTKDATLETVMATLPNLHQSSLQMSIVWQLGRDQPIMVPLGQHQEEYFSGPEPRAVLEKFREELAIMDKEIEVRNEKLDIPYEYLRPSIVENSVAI
Description: biochemical. Format: tissue-based, Reticulocytes. As to conditions: reticulocytes.

The nature of series [2]: DRUGMATRIX: ATPase, Na+/K+ enzyme inhibition (substrate: ATP). Format: tissue-based, Sus scrofa, Heart. As to conditions: Not Active = under 50% inhibition at 10 µM.
Series [3] concerns the target Tyrosine-protein kinase Fyn (Homo sapiens, UniProt P06241). Description: biochemical. Format: cell-based, Insect cells.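 Further: enzymatic inhibition of Fyn kinase activity measured with Poly(Glu:Tyr) as the phosphorylation substrate; in other assays of this panel Not Active means under 50% inhibition at 10 µM.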
For the next series, the target named is T2, Estrogen receptor (Homo sapiens, UniProt P03372). Further: in other assays of this panel Not Active means under 50% inhibition at 10 µM.
T2 sequence (P03372 whole entry): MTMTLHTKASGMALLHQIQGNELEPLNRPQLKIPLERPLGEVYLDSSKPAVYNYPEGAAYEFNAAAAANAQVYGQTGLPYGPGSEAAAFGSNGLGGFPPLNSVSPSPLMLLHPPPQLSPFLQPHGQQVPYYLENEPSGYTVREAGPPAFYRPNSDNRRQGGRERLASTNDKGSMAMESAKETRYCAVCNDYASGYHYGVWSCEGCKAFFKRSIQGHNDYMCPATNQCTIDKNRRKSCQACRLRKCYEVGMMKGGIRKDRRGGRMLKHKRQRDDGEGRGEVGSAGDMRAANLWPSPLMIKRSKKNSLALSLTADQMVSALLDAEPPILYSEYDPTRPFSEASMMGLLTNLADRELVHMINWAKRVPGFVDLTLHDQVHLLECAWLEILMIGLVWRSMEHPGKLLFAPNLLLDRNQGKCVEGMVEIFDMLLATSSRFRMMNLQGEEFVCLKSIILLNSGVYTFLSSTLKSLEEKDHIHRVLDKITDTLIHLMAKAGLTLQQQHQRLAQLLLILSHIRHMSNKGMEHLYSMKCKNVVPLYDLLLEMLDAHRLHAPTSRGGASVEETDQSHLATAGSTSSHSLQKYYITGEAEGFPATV
The settings on record: sf9.

The target in a further series is Carbonic anhydrase 2 (Homo sapiens, UniProt P00918). As to the kind of experiment: DRUGMATRIX: Carbonic Anhydrase II enzyme inhibition (substrate: 4-Nitrophenyl acetate (4-NPA)). The class given is tissue-based, Erythrocyte. As to conditions: erythrocyte; Not Active = under 50% inhibition at 10 µM.
The target in series [4] is Kappa-type opioid receptor (Homo sapiens, UniProt P41145). Description: DRUGMATRIX: Opiate kappa (OP2, KOP) radioligand binding (ligand: [3H] Diprenorphine). Format: cell membranes, HEK293, Membrane. As to conditions: hek293; Not Active = under 50% inhibition at 10 µM.
Kappa-type opioid receptor, sequence (P41145 whole entry): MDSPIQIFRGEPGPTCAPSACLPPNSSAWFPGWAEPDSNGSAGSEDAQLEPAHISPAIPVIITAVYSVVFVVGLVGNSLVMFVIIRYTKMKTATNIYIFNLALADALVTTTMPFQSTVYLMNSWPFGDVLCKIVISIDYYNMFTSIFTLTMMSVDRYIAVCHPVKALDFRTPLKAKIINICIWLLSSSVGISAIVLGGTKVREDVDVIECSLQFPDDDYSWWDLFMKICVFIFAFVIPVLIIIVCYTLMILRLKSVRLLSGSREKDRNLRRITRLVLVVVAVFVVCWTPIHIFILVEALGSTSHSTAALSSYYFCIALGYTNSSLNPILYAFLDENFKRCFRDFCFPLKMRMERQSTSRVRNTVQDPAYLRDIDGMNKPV
Another series concerns the target T3, Caspase-1 (Homo sapiens, UniProt P29466).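 Further: Caspase-1 enzyme inhibition assay with a peptide substrate; in other assays of this panel Not Active means under 50% inhibition at 10 µM.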
T3 sequence (P29466 whole entry): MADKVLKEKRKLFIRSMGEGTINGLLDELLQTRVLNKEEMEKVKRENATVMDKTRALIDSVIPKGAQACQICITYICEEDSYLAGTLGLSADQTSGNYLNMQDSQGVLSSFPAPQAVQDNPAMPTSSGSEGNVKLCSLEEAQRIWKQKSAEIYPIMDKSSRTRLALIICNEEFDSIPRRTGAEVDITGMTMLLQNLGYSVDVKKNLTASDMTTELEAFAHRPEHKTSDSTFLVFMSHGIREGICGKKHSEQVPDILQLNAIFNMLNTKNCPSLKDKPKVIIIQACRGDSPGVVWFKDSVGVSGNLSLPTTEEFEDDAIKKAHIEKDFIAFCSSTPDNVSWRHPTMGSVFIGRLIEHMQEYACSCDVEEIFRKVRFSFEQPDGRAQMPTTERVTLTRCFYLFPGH
On the set-up: species or system Escherichia coli.

Another series has as its target T4, Cytochrome P450 2A6 (Homo sapiens, UniProt P11509). Further: in other assays of this panel Not Active means under 50% inhibition at 10 µM.
T4 sequence (P11509 whole entry): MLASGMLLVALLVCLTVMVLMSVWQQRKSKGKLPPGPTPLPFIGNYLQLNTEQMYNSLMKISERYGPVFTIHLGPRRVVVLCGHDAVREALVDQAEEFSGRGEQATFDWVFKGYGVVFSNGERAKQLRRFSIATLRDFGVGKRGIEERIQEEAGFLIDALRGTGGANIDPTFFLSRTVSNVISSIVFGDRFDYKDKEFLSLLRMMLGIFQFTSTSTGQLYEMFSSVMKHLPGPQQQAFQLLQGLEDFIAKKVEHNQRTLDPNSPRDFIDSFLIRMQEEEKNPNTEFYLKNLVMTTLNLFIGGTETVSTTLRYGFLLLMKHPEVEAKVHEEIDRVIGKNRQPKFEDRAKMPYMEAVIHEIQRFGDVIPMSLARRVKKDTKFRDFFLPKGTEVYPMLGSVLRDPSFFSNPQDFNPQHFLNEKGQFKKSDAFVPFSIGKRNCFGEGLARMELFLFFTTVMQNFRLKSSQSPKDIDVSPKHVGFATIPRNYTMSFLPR
The settings on record: bti-tn-5b1-4.

Tyrosine-protein kinase Fyn, sequence (P06241 whole entry): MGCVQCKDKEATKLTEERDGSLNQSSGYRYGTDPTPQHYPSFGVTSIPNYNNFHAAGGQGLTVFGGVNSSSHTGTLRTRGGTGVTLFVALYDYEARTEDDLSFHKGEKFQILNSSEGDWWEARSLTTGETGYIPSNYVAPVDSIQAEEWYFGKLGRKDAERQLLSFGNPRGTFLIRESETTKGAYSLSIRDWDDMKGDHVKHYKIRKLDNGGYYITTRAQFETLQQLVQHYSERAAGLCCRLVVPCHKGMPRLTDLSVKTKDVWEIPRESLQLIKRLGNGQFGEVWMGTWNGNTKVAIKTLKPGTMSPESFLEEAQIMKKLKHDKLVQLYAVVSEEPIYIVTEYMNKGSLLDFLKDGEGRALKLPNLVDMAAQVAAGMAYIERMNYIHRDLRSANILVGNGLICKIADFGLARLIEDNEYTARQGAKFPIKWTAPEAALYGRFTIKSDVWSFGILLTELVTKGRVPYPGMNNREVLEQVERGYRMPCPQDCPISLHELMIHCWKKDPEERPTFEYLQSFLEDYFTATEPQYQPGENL

Turning to `CN(Cc1ccc(C(C)(C)C)cc1)Cc1cccc2ccccc12` [BUTENAFINE], the IC50 entry (in series [1]; in series [2]; in series [3] (insect cells); at Estrogen receptor; against Carbonic anhydrase 2; in series [4]) was “Not Active” each time. Further, the IC50 result against Caspase-1 and against Cytochrome P450 2A6 was “Not Active” each time. The Ki result (in series [2]; on Cytochrome P450 2A6) was “Not Active” in each case.

For `C[C@H](CCC(=O)O)[C@H]1CC[C@H]2[C@@H]3[C@H](O)C[C@@H]4C[C@H](O)CC[C@]4(C)[C@H]3C[C@H](O)[C@]12C` [CHOLIC ACID], the IC50 entry (in series [1]; in series [2]; in series [3] (insect cells); against Estrogen receptor; on Carbonic anhydrase 2; in series [4]) was “Not Active” in each case. The IC50 result against Caspase-1 and on Cytochrome P450 2A6 was “Not Active” each time. For the same compound, the Ki result (in series [2]; at Cytochrome P450 2A6) was “Not Active” in each case.

Turning to `Cc1cc(C2CCCCC2)n(O)c(=O)c1` [CICLOPIROX], the IC50 entry (in series [1]; in series [2]; in series [3] (insect cells); against Estrogen receptor; at Carbonic anhydrase 2; in series [4]) was “Not Active” each time. The IC50 entry against Caspase-1 and against Cytochrome P450 2A6 was “Not Active” in each case. The Ki entry (in series [2]; at Cytochrome P450 2A6) was “Not Active” throughout.

As for `Cc1cc(C(C#N)c2ccc(Cl)cc2)c(Cl)cc1NC(=O)c1cc(I)cc(I)c1O` (centres undefined) [CLOSANTEL], the half-maximal inhibitory concentration (IC50) entry in series [1] is “Not Active”; in series [2] (read-out: IC50), 4880 nM; in series [3] (read-out: IC50), 939 nM; at Estrogen receptor it was “Not Active”; at Carbonic anhydrase 2, “Not Active”; in series [4] it was “Not Active”. Moreover, the IC50 entry against Caspase-1 and at Cytochrome P450 2A6 was “Not Active” in each case. Further, the Ki entry on Cytochrome P450 2A6 is “Not Active”.

On to `Cc1onc(-c2ccccc2Cl)c1C(=O)N[C@@H]1C(=O)N2[C@@H]1SC(C)(C)[C@@H]2C(=O)O` [CLOXACILLIN], for which the half-inhibitory concentration (IC50) entry (in series [1]; in series [2]; in series [3] (insect cells); on Estrogen receptor; against Carbonic anhydrase 2; in series [4]) was “Not Active” throughout. Further, the IC50 result at Caspase-1 and against Cytochrome P450 2A6 was “Not Active” in each case. The Ki result (in series [2]; on Cytochrome P450 2A6) was “Not Active” throughout.

As for `CC1CC(OC(=O)C(O)c2ccccc2)CC(C)(C)C1` (centres undefined) [CYCLANDELATE], the IC50 result (in series [1]; in series [2]; in series [3] (insect cells); against Estrogen receptor; against Carbonic anhydrase 2; in series [4]) was “Not Active” throughout. Further, the IC50 result against Caspase-1 and against Cytochrome P450 2A6 was “Not Active” in each case. The Ki result (in series [2]; on Cytochrome P450 2A6) was “Not Active” in each case.

On to `Cc1c2oc3c(C)ccc(C(=O)N[C@@H]4C(=O)N[C@H](C(C)C)C(=O)N5CCC[C@H]5C(=O)N(C)CC(=O)N(C)[C@@H](C(C)C)C(=O)O[C@@H]4C)c3nc-2c(C(=O)N[C@@H]2C(=O)N[C@H](C(C)C)C(=O)N3CCC[C@H]3C(=O)N(C)CC(=O)N(C)[C@@H](C(C)C)C(=O)O[C@@H]2C)c(N)c1=O` [DACTINOMYCIN] (I: T[dV]P[Sar][NMeV] / II: T[dV]P[Sar][NMeV]; ester I:1-I:C, II:1-II:C; linker I:N-II:N via Actinocin(1to9)), for which the IC50 entry (in series [1]; in series [2]; in series [3] (insect cells); on Estrogen receptor; against Carbonic anhydrase 2; in series [4]) was “Not Active” each time. The IC50 entry on Caspase-1 and at Cytochrome P450 2A6 was “Not Active” each time. Moreover, the Ki result (in series [2]; on Cytochrome P450 2A6) was “Not Active” each time.

`Cc1c(O)c(=O)ccn1C` [DEFERIPRONE]: the IC50 result (in series [1]; in series [2]; in series [3] (insect cells); against Estrogen receptor; at Carbonic anhydrase 2; in series [4]) was “Not Active” each time. Besides, the IC50 entry on Caspase-1 and on Cytochrome P450 2A6 was “Not Active” in each case. For the same compound, the Ki entry (in series [2]; at Cytochrome P450 2A6) was “Not Active” each time.

Consider `CNCCCN1c2ccccc2CCc2ccccc21` [DESIPRAMINE], for which the IC50 entry (in series [1]; in series [2]; in series [3] (insect cells); against Estrogen receptor; against Carbonic anhydrase 2; in series [4]) was “Not Active” in each case. The IC50 result against Caspase-1 and at Cytochrome P450 2A6 was “Not Active” each time. Further, the Ki entry (in series [2]; on Cytochrome P450 2A6) was “Not Active” in each case.

Turning to `CC(C)[C@@]1(NC(=O)[C@@H]2C[C@@H]3c4cccc5[nH]cc(c45)C[C@H]3N(C)C2)O[C@@]2(O)[C@@H]3CCCN3C(=O)[C@H](Cc3ccccc3)N2C1=O.CS(=O)(=O)O` [DIHYDROERGOCRISTINE MESYLATE], the IC50 entry (in series [1]; in series [2]; in series [3] (insect cells); on Estrogen receptor; on Carbonic anhydrase 2; in series [4]) was “Not Active” in each case. In addition, the IC50 result against Caspase-1 and at Cytochrome P450 2A6 was “Not Active” in each case. Further, the Ki result (in series [2]; at Cytochrome P450 2A6) was “Not Active” each time.

In the case of `O=C(CCCN1CC=C(n2c(=O)[nH]c3ccccc32)CC1)c1ccc(F)cc1` [DROPERIDOL], the IC50 entry (in series [1]; in series [2]; in series [3] (insect cells); against Estrogen receptor; against Carbonic anhydrase 2; in series [4]) was “Not Active” throughout. The half-inhibitory concentration (IC50) entry against Caspase-1 and on Cytochrome P450 2A6 was “Not Active” each time. Also, the Ki entry (in series [2]; on Cytochrome P450 2A6) was “Not Active” throughout.
